Experiments:
Format in all cases: in vivo
[1] = Experiment 6 sensory evaluation of cyclic dipeptides, “boosting of last flavor (aftertaste)”
Experimental: (§1) An aqueous solution in which the concentration of each of the cyclic dipeptides shown in the table described below is set to be the same as its concentration in the heat-treated coriander prepared in 1.1. described above, as estimated from the ratio of the peak area of the cyclic dipeptides to the peak area of the internal standard (47 μg/g of L-lysine-^13C6 monohydrochloride) (hereinafter referred to as “heat-treated coriander equivalent aqueous solution”) was prepared. An aqueous solution in which the concentration of each of the cyclic dipeptides is set to be the same as its concentration in the heat-treated paprika of Example 203 prepared in 2.1 described above (hereinafter referred to as “heat-treated paprika equivalent aqueous solution”) was also prepared. Cyclic dipeptides prepared by the applicant were used in this experiment. As a cyclic dipeptide comprising Leu/Ile, a mixture comprising equal parts of cyclic dipeptide comprising Leu and cyclic dipeptide comprising Ile was used.
(§2) Common and reduced-sodium curry rouxes were prepared according to the procedures described in (1) and (2) of 1.3. described above.
(§3) Two dispersions of 44 g of the aforesaid reduced-sodium curry roux dispersed in 300 g of hot water were prepared. To one of them was added the heat-treated coriander equivalent solution or heat-treated paprika equivalent aqueous solution of the individual cyclic dipeptides shown in the table described below so as to be in the final concentration of 0.5% (w/w) or 1.0% (w/w), respectively.
(§4) Forty-four grams of the aforesaid common curry roux was dispersed in 300 g of hot water.
(§5) The dispersion of reduced-sodium curry roux dispersed in hot water and the dispersion of common curry roux dispersed in hot water were used as comparative controls, and the strength of the flavor was evaluated by three evaluators on the basis of the following evaluation criteria from the viewpoint of “top sharp saltiness”, “middle fullness (enhanced thickness) and “boosting of last flavor (aftertaste).”
(§6) The average of the evaluated scores was defined as “F” when it was 1.0 or lower, “C” when it was 1.1 or higher and 1.9 or lower, “B” when it was 2.0 or higher and 2.5 or lower, “A” when it was 2.6 or higher and 2.9 or lower, and “AA” when it was 3.0 or higher.
(§7) In the table described below, “ID” refers to the compound ID described above. The items of “coriander 0.5%” and “coriander 1.0%” refer to the addition of the aforesaid heat-treated coriander equivalent aqueous solution of cyclic dipeptide so that the final concentrations may be 0.5% (w/w) and 1.0% (w/w), respectively. The items of “paprika 0.5%” and “paprika 1.0%” refer to the addition of the aforesaid heat-treated paprika equivalent aqueous solution of cyclic dipeptide so that the final concentration may be 0.5% (w/w) and 1.0% (w/w), respectively.

[2] = Experiment 6 sensory evaluation of cyclic dipeptides, “top sharp saltiness”
Experimental: as §1, §2, §3, §4, §5, §6, §7

[3] = Experiment 6 sensory evaluation of cyclic dipeptides, “middle fullness (enhanced thickness)”
Experimental: as §1, §2, §3, §4, §5, §6, §7

[4] = Additive amount coriander 0.5%, reduced-sodium curry roux
[5] = heat-treated coriander equivalent aqueous solution of cyclic dipeptide, final 1.0% (w/w) in reduced-sodium curry roux dispersion
[6] = heat-treated coriander equivalent aqueous solution of cyclic dipeptide, final 1.0% (w/w) in reduced-sodium curry roux dispersion, 3 evaluators
[7] = Additive amount coriander 0.5% (heat-treated coriander equivalent aqueous solution, final 0.5% (w/w)), reduced-sodium curry roux
[8] = Additive amount paprika 0.5%, reduced-sodium curry roux
[9] = heat-treated paprika equivalent aqueous solution of cyclic dipeptide, final 1.0% (w/w) in reduced-sodium curry roux dispersion
[10] = heat-treated paprika equivalent aqueous solution of cyclic dipeptide, final 1.0% (w/w) in reduced-sodium curry roux dispersion, 3 evaluators
[11] = Additive amount paprika 0.5% (heat-treated paprika equivalent aqueous solution, final 0.5% (w/w)), reduced-sodium curry roux

Row | Substance | Bosting of last flavor Average [1, 4] | Bosting of last flavor Evaluation [1, 4] | Bosting of last flavor Evaluation [1, 5] | Bosting of last flavor Average [1, 6] | Top sharp saltiness Average [2, 7] | Top sharp saltiness Evaluation [2, 4] | Top sharp saltiness Evaluation [2, 5] | Top sharp saltiness Average [2, 6] | Middle fullness Average [3, 4] | Middle fullness Evaluation [3, 4] | Middle fullness Evaluation [3, 5] | Middle fullness Average [3, 6] | Bosting of last flavor Average [1, 8] | Bosting of last flavor Evaluation [1, 8] | Bosting of last flavor Evaluation [1, 9] | Bosting of last flavor Average [1, 10] | Top sharp saltiness Average [2, 11] | Top sharp saltiness Evaluation [2, 8] | Top sharp saltiness Evaluation [2, 9] | Top sharp saltiness Average [2, 10] | other results
1 | cyclic (Ala-Arg) [Coriander ID 11] | 1.8 points | B (“B” when it was 2.0 or higher and 2.5 or lower) | A (“A” when it was 2.6 or higher and 2.9 or lower) | 2.7 points | 2.0 points | B (“B” when it was 2.0 or higher and 2.5 or lower) | B (“B” when it was 2.0 or higher and 2.5 or lower) | 2.2 points | 1.8 points | C (“C” when it was 1.1 or higher and 1.9 or lower) | B (“B” when it was 2.0 or higher and 2.5 or lower) | 2.7 points | – | – | – | – | – | – | – | – | –
2 | cyclic (Ala-Asn) [Coriander ID 56] | 2.3 points | B (“B” when it was 2.0 or higher and 2.5 or lower) | B (“B” when it was 2.0 or higher and 2.5 or lower) | 2.5 points | 2.3 points | B (“B” when it was 2.0 or higher and 2.5 or lower) | B (“B” when it was 2.0 or higher and 2.5 or lower) | 2.0 points | 2.3 points | B (“B” when it was 2.0 or higher and 2.5 or lower) | A (“A” when it was 2.6 or higher and 2.9 or lower) | 2.7 points | – | – | – | – | – | – | – | – | –
3 | cyclic (Ala-Asp) [Coriander ID 58] | – | – | – | – | – | – | – | – | – | – | – | – | 3.2 points | AA (“AA” when it was 3.0 or higher) | AA (“AA” when it was 3.0 or higher) | 3.2 points | 3.0 points | AA (“AA” when it was 3.0 or higher) | AA (“AA” when it was 3.0 or higher) | 3.0 points | Middle fullness Average [3, 8]: 3.3 points; Middle fullness Evaluation [3, 8]: AA (“AA” when it was 3.0 or higher); Middle fullness Evaluation [3, 9]: AA (“AA” when it was 3.0 or higher); Middle fullness Average [3, 10]: 3.0 points
4 | cyclic (Ala-His) [Coriander ID 10] | 3.3 points | AA (“AA” when it was 3.0 or higher) | AA (“AA” when it was 3.0 or higher) | 3.7 points | 2.7 points | A (“A” when it was 2.6 or higher and 2.9 or lower) | B (“B” when it was 2.0 or higher and 2.5 or lower) | 2.3 points | 3.2 points | AA (“AA” when it was 3.0 or higher) | AA (“AA” when it was 3.0 or higher) | 3.3 points | – | – | – | – | – | – | – | – | –
5 | cyclic (Ala-Tyr) [Coriander ID 26] | 2.2 points | B (“B” when it was 2.0 or higher and 2.5 or lower) | B (“B” when it was 2.0 or higher and 2.5 or lower) | 2.3 points | 2.2 points | B (“B” when it was 2.0 or higher and 2.5 or lower) | C (“C” when it was 1.1 or higher and 1.9 or lower) | 1.3 points | 2.3 points | B (“B” when it was 2.0 or higher and 2.5 or lower) | B (“B” when it was 2.0 or higher and 2.5 or lower) | 2.2 points | – | – | – | – | – | – | – | – | –
6 | cyclic (Arg-Leu/Ile) [Coriander ID 22] | 2.7 points | A (“A” when it was 2.6 or higher and 2.9 or lower) | A (“A” when it was 2.6 or higher and 2.9 or lower) | 2.8 points | 2.6 points | A (“A” when it was 2.6 or higher and 2.9 or lower) | B (“B” when it was 2.0 or higher and 2.5 or lower) | 2.0 points | 2.6 points | A (“A” when it was 2.6 or higher and 2.9 or lower) | B (“B” when it was 2.0 or higher and 2.5 or lower) | 2.5 points | – | – | – | – | – | – | – | – | –
7 | cyclic (Glu-Arg) [Coriander ID 8] | – | – | – | – | – | – | – | – | – | – | – | – | 2.7 points | A (“A” when it was 2.6 or higher and 2.9 or lower) | B (“B” when it was 2.0 or higher and 2.5 or lower) | 2.3 points | 1.8 points | C (“C” when it was 1.1 or higher and 1.9 or lower) | B (“B” when it was 2.0 or higher and 2.5 or lower) | 2.2 points | Middle fullness Average [3, 8]: 2.2 points; Middle fullness Evaluation [3, 8]: B (“B” when it was 2.0 or higher and 2.5 or lower); Middle fullness Evaluation [3, 9]: B (“B” when it was 2.0 or higher and 2.5 or lower); Middle fullness Average [3, 10]: 2.5 points
8 | cyclic (Glu-Asp) [Coriander ID 12] | – | – | – | – | – | – | – | – | – | – | – | – | 2.3 points | B (“B” when it was 2.0 or higher and 2.5 or lower) | B (“B” when it was 2.0 or higher and 2.5 or lower) | 2.0 points | 1.8 points | C (“C” when it was 1.1 or higher and 1.9 or lower) | C (“C” when it was 1.1 or higher and 1.9 or lower) | 1.5 points | Middle fullness Average [3, 8]: 2.7 points; Middle fullness Evaluation [3, 8]: A (“A” when it was 2.6 or higher and 2.9 or lower); Middle fullness Evaluation [3, 9]: B (“B” when it was 2.0 or higher and 2.5 or lower); Middle fullness Average [3, 10]: 2.0 points
9 | cyclic (Glu-Glu) | – | – | – | – | – | – | – | – | – | – | – | – | 2.5 points | B (“B” when it was 2.0 or higher and 2.5 or lower) | B (“B” when it was 2.0 or higher and 2.5 or lower) | 2.2 points | 2.0 points | B (“B” when it was 2.0 or higher and 2.5 or lower) | B (“B” when it was 2.0 or higher and 2.5 or lower) | 2.2 points | Middle fullness Average [3, 8]: 2.3 points; Middle fullness Evaluation [3, 8]: B (“B” when it was 2.0 or higher and 2.5 or lower); Middle fullness Evaluation [3, 9]: B (“B” when it was 2.0 or higher and 2.5 or lower); Middle fullness Average [3, 10]: 2.5 points
10 | cyclic (Glu-Gly) [Coriander ID 9] | 2.8 points | A (“A” when it was 2.6 or higher and 2.9 or lower) | B (“B” when it was 2.0 or higher and 2.5 or lower) | 2.5 points | 2.2 points | B (“B” when it was 2.0 or higher and 2.5 or lower) | B (“B” when it was 2.0 or higher and 2.5 or lower) | 2.0 points | 2.8 points | A (“A” when it was 2.6 or higher and 2.9 or lower) | AA (“AA” when it was 3.0 or higher) | 3.0 points | – | – | – | – | – | – | – | – | –

— patent US20260231994A1, “TASTE-ENHANCING COMPOSITION, METHOD FOR PRODUCING SAME, FOOD PRODUCT, AND METHOD FOR ENHANCING TASTE OF FOOD PRODUCT” (HOUSE FOODS GROUP INC., priority 2023, published 2026)
